{"source": "patent US20230094545A1", "about": "“S1P RECEPTOR MODULATORS” (AKAAL PHARMA PTY LTD, priority 2020, published 2023)", "key": {"[1]": {"details": "cited from earlier work"}, "[2]": {"test": "Solubility in water / precipitation in buffer", "assay_type": "physicochemical", "protocol": "To solubilize the free base in water the novel technology AvignaSOL (N,N-Dimethyl hexanamide; patent number: U.S. Pat. No. 9,186,338B2) and its higher derivatives such as octinamide, decamide which improve the absorption of various poorly soluble drugs was used. AvignaSOL as 1-70% ww % assisted the solubilization of free base as 1 gm/20 mL of water. The solubility of free base in water assisted its direct use in various formulation such as creams, gels, solutions which together with the permeation enhancing effect will be harnessed to improve skin penetration and/or bioavailability and in altering the pharmacokinetics and pharmacodynamics profile of free base.\nThe AvignaSOL having a log P of ˜1.6 hinder the release by increasing the hydrophobicity of the delivery system. […] The combination of compound of formula I with other ingredients including sustained release enhancer with or without AvignaSOL were prepared as novel formulation techniques to improve and/or alter the pharmacokinetics and pharmacodynamics profile of compound of Formula I."}, "[3]": {"target": "T1, S1P1 receptor (Homo sapiens, UniProt P21453)", "T1 sequence (P21453 whole entry)": "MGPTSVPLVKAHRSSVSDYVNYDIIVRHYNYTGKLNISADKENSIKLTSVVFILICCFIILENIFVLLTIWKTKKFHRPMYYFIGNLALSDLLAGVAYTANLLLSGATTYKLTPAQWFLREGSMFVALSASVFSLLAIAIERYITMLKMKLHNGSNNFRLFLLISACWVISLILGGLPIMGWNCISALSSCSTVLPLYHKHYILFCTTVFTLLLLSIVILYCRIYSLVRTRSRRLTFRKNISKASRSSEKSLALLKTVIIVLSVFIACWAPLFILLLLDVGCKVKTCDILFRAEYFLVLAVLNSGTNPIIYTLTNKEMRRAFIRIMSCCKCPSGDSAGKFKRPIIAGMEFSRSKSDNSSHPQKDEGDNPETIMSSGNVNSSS", "details": "Lucas et al; read-out: EC50 at S1P1 receptor in a GTPγS assay; cited from earlier work"}, "[4]": {"target": "T1, S1P1 receptor", "details": "cited from earlier work; for receptor degradation ability: Lucas et al; for activity v/s degradation margin: known S1P receptor modulators"}, "[5]": {"test_system": "EAE", "test": "Animal model of multiple sclerosis (EAE induced with guinea pig MBP)", "assay_type": "in vivo, Lewis rats", "details": "EAE rats, oral every day until day 26", "protocol": "The oral treatment with a compound of formula (I) was conducted in an animal model of multiple sclerosis. EAE was induced in female Lewis rats with guinea pig MBP (25 μg/rat)."}, "[6]": {"details": "single dose, 2 mg or lower doses; cited from earlier work"}}}
{"smiles": "CCCCCC(=O)N(C)C", "note": "[AvignaSOL, N,N-Dimethyl hexanamide]", "values": [{"measurement": "log P", "setting": "[1]", "value": "~1.6"}]}
{"smiles": "CCCOc1ccc(-c2nc(-c3ccc4oc(C(N)(CO)CO)cc4c3)no2)cc1Cl", "note": "[compound of formula I free base]", "values": [{"measurement": "solubility in water", "setting": "[2]", "value": "insoluble in water"}]}
{"smiles": "CCCCCCCCCCCCC/C=C/[C@@H](O)[C@@H](N)COP(=O)(O)O", "note": "[S1P]", "values": [{"measurement": "EC50", "setting": "[3]", "value": 1.2, "unit": "nM"}, {"measurement": "receptor degradation ability", "setting": "[4]", "value": 302, "unit": "nM"}]}
{"smiles": "CCCCCCCCc1ccc(CCC(N)(CO)CO)cc1", "note": "[FTY720]", "values": [{"measurement": "lymphopenia", "setting": "[5]", "value": "induced at a high level over a long-term period"}, {"measurement": "receptor degradation ability", "setting": "[4]", "value": 0.34, "unit": "nM"}, {"measurement": "activity v/s degradation margin", "setting": "[4]", "value": 0.17}]}
{"smiles": "CC(C)Oc1ncc(-c2nc(-c3cccc4c3ccn4CCCC(=O)O)no2)cc1Cl", "note": "[GSK2018682]", "values": [{"measurement": "lymphopenia", "setting": "[6]", "value": "minimal or no lymphopenia"}, {"measurement": "reduction in heart rate", "setting": "[6]", "value": "≥ 10", "unit": "beats"}]}
{"smiles": "CCc1cc(/C(C)=N/OCc2ccc(C3CCCCC3)c(C(F)(F)F)c2)ccc1CN1CC(C(=O)O)C1", "note": "[BAF-312]", "values": [{"measurement": "activity v/s degradation margin", "setting": "[4]", "value": 2.95}]}
{"smiles": "CCC/N=C1\\S/C(=C\\c2ccc(OC[C@H](O)CO)c(Cl)c2)C(=O)N1c1ccccc1C", "note": "[Ponesimod]", "values": [{"measurement": "activity v/s degradation margin", "setting": "[4]", "value": "< 2"}]}
